Common to all, as to type: cell-based, human
The subject of assay [1] is cells differentiated from iPS cell line MAP2 Neo #2. Description: Flow cytometry of midbrain DA neuron differentiation with G418 drug selection (Example 1). To be noted: day 38; 100 μg/mL G418 selection; same protocol without drug selection gave 39% neurons. As to the method: On Day 24, cells were dissociated using Accutase (45 min) and were re-plated at 3.1×10^5 cells/cm^2 onto flasks pre-coated with poly-L-ornithine and laminin (PLO/laminin) in Maturation Medium containing 2.5 μM blebbistatin. Cells were fed with Maturation Medium on Day 25. On Day 27 and Day 29, cells were fed with Maturation Medium containing 100 μg/mL G418 to select against cells not expressing the neomycin resistance gene under the control of a pan-neuronal MAP2 promoter.
On Day 31, cells were dissociated using Accutase (45 min) and were re-plated at 3.1×10^5 cells/cm^2 onto PLO/ laminin flasks in Maturation Medium containing 100 μg/mL G418 and 2.5 μM blebbistatin. On Day 32, Day 34 and Day 36, cells were fed with Maturation Medium. On Day 38, cells were dissociated using Accutase (45 min) and cryopreserved in CryoStor CS10 medium at 1.25×10^7 cells/mL using a controlled rate freezer.
The effect of drug selection on gene expression in cell populations was also analyzed. […] This iPS cell lines (MAP2 Neo #2 (01279.107.00402)) was generated using zinc finger nuclease-mediated homologous recombination at the AAVS1 safe harbor site, as detailed above. The midbrain DA neuron differentiation protocol performed without drug selection results in a population of cells that is 39% neurons (Map2^+/Nestin^−) on day 38. […]

For assay [2] the test system is unchanged. The experiment in a line: Flow cytometry of cells made with the No FGF8 protocol with drug selection (+G418) (Example 2). To be noted: +G418, 7 days post-thaw. On the procedure:
On Day 19, cells were dissociated using Accutase (45 min) and were re-plated at 3.1×10^5 cells/cm^2 onto flasks pre-coated with poly-L-ornithine and laminin (PLO/laminin) in Maturation Medium containing 2.5 μM blebbistatin. Cells were fed with Maturation Medium on Days 20, 22 and 24. To compare unselected cells to those that had undergone drug selection, in some experiments a side-arm condition of cells were fed on Day 22 and 24 with Maturation Medium containing 100 μg/mL G418 to select against cells not expressing the neomycin resistance gene under the control of a pan-neuronal MAP2 promoter.
On Day 26, cells were dissociated using Accutase (45 min) and cryopreserved in CryoStor CS10 medium at 1.25×10^7 cells/mL using a controlled rate freezer.
In further studies the purity of mature midbrain DA neurons was assessed by flow cytometry of cells generated using a “no FGF8” protocol alone compared to cells obtained using a drug selection method. When the cells are cryopreserved on day 26 with no drug selection, they are 99% FoxA2^+, 40% TH^+, and 77% Map2^+. […] For comparison, cells made using the same protocol but with drug selection (+G418), the final purity at 7 days post-thaw was 96% FoxA2^+, 63% TH^+, and 98% Map2^+.

The next assay deals with MAP2 Neo #2 iPS cells. The experiment in a line: Midbrain specification during DA progenitor induction with a MEK inhibitor. To be noted: 1 μM PD0325901 added from Day 2 of differentiation. As to the method: Day 1 medium was composed of DMEM/F12 with B27 Supplement and containing a cocktail of small molecule inhibitors and activators (“Induction Cocktail”): 200 nM LDN-193189, […] SB431542, 2 μM purmorphamine, 100 ng/mL Shh C25II and 1.25 μM CHIR 99021. […] On Day 3 and Day 4, the cells were fed with DMEM/F12 with B27 (−Vitamin A)+Induction Cocktail+1 μM PD0325901.

The structures appear in SMILES notation.

As for `CN[C@@H]1[C@@H](O)[C@@H](O[C@@H]2[C@@H](O)[C@H](O[C@H]3O[C@H]([C@@H](C)O)[C@@H](O)[C@H](O)[C@H]3N)[C@@H](N)C[C@H]2N)OC[C@]1(C)O` [G418], in assay [1], the “neurons (Map2+/Nestin-) in the cell population” value is listed as 95%. Further, in assay [2] (without selection 55%), the “TH+ cells, final purity” value was 63%. Besides, in assay [2] (without selection 90%), the “Map2+ cells, final purity” value turned out to be 98%. The “FoxA2+ cells, final purity” value in assay [2] (without selection 93%) is given as 96%.

Regarding `O=C(NOC[C@H](O)CO)c1ccc(F)c(F)c1Nc1ccc(I)cc1F` [PD0325901], the midbrain specification entry with MAP2 Neo #2 iPS cells is “induces faster and more efficient midbrain specification”.

These data come from patent publication US10828335B2, “Production of midbrain dopaminergic neurons and methods for the use thereof” (FUJIFILM Cellular Dynamics, Inc., priority 2014, dated 2020).
